Results published in patent publication US9389223B2, “Pharmacodynamic assays” (The United States of America, as represented by the …, priority 2004, dated 2016).

Key:
Hsp70 = assay: Flow cytometry of Hsp70 levels in K562 cells; assay type: cell-based; details: single drug, relative to control cells
From the text: (§1) Leukemia K562 cell line samples containing approximately 5×10^6 to 1×10^7 cells were exposed to either the anti-cancer drug 17-allylaminogeldanamycin (17-AAG) or one of the deacetylase inhibitors MS-275 or trichostatin A (TSA). Some samples received both 17-AAG and TSA or both 17-AAG and MS-275. Control samples received no drug. Administration of the 17-AAG anti-cancer drug led to functional changes in Hsp90 and increased expression of Hsp70. […] TSA is a deacetylase inhibitor that can affect acetylation of numerous proteins. In this study, the effect of TSA on tubulin acetylation was observed using an antibody that specifically binds to acetylated tubulin.
(§2) After treatment with the various drugs, the cells were resuspended in fixation solution (0.4% paraformaldehyde in PBS), incubated at 37° C. for 5-10 minutes and washed with wash buffer. The fixed cells were then resuspended in permeabilization solution (4% Triton X-100 in wash buffer) and incubated at room temperature for 5 minutes. Cells were incubated for 1 hour at room temperature with antibodies to the various pharmacodynamic markers. Several cell samples were incubated with antibodies to several markers at once. […] Fluorescence associated with the cells was detected and quantified by flow cytometry.

acetylated lysine = assay: Flow cytometry of acetylated lysine in K562 cells co-stained for activated caspase 3; assay type: cell-based, human; details: K562, 1 μM, 48 hours
Description: (§3) K562 chronic myelogenous leukemia cells were incubated with vehicle alone, 1 μM imatinib (the anticancer drug also known as Gleevec), 1 μM MS-275, or both for 48 hours. The cells were then stained for acetylated lysine as described above and co-stained with antibody to activated caspase 3 as an indicator of cells undergoing apoptosis. Dot plots display acetylated lysine on the x-axis and activated caspase 3 on the y-axis. The multiparameter flow cytometric assay is a powerful tool to monitor pharmacodynamic changes induced by anticancer drugs used in monotherapy or combination therapy protocols. HDAC inhibitors have been reported to promote imatinib-mediated apoptosis in Bcr/Abl+ human myeloid leukemia cells, including imatinib-resistant cells. The effect of MS-275 and imatinib were therefore examined, alone and in combination, on apoptosis in the Bcr/Abl+ cell line K562. Because both MS-275 and imatinib have been reported to induce apoptosis associated with caspase 3 activation, an antibody was used that specifically recognizes activated caspase 3 in a flow assay. This caspase 3 flow assay effectively monitors drug-induced apoptosis. When combined detection of acetylated lysine, this flow assay permitted simultaneous monitoring of apoptosis (caspase 3) and acetylated lysine.

acetylated tubulin = assay: Flow cytometry of acetylated tubulin in K562 cells; assay type: cell-based; details: single drug
From the text: as §1, §2

[1] = system: K562 chronic myelogenous leukemia cells; assay: Flow cytometry of apoptosis (activated caspase 3) in K562 cells; assay type: cell-based, human; details: K562, 1 μM, 48 hours, single drug
Description: as §3

Structure (SMILES): C=CCNC1=C2C[C@@H](C)C[C@H](OC)[C@H](O)[C@@H](C)/C=C(\C)[C@H](OC(N)=O)[C@@H](OC)/C=C\C=C(/C)C(=O)NC(=CC1=O)C2=O [17-AAG, 17-allylaminogeldanamycin]
- levels of Hsp70 (Hsp70): increased levels of Hsp70

Structure (SMILES): Nc1ccccc1NC(=O)c1ccc(CNC(=O)OCc2cccnc2)cc1 [MS-275, N-(2-aminophenyl)-4-[N-(pyridin-3-ylmethoxycarbonyl)aminomethyl]benzamide]
- cells with strongly upregulated acetylation (acetylated lysine): over 50%

Structure (SMILES): CC(/C=C/C(=O)NO)=C\[C@@H](C)C(=O)c1ccc(N(C)C)cc1 [TSA, trichostatin A]
- levels of acetylated tubulin (acetylated tubulin): increased levels of acetylated tubulin

Structure (SMILES): Cc1ccc(NC(=O)c2ccc(CN3CCN(C)CC3)cc2)cc1Nc1nccc(-c2cccnc2)n1 [imatinib, 4-[(4-Methyl-1-piperazinyl)methyl]-N-[4-methyl-3-[[4-(3-pyridinyl)-2-yrimidinyl]amino]-phenyl]benzamide methanesulfonate]
- percent of apoptotic cells (activated caspase 3) [1]: increased the percent of apoptotic cells
- acetylation of the activated caspase 3 positive cell population (acetylated lysine): lost acetylation
